# Measured values reported in patent US8703224B2, “Method to improve water solubility of Rebaudioside D” (PepsiCo, Inc., priority 2009, dated 2014).
# How the values were obtained:
# [1] = cited from earlier work
# [2] = Differential Scanning calorimetry (DSC); conditions: 40°-300° C., heating at 10° C./min
# [3] = Dissolution in water with heating, then cooling to room temperature (stable solution test); format: physicochemical
# Protocol: In at least certain exemplary embodiments, such supersaturated aqueous solution has a stable solution of Reb D at a concentration greater than 500 ppm, e.g., 1500 ppm or 3000 ppm. As used here and in the appended claims, a “stable solution” is defined as a solution prepared and stored according to the methods described here where the Reb D remains in solution for a period of time of at least 24 hours at room temperature without forming a precipitate.
# [4] = Thermal Gravimetric Analysis (TGA); format: physicochemical; conditions: 2 mg sample, 10° C./min
# Protocol: In a complementary experiment, commercially available Reb D was examined by Thermal Gravimetric Analysis (TGA). TGA is a type of test that may be performed to determine changes in weight as a function of temperature. The method may be used to determine loss of water, or any other volatiles in a compound as it is heated. A derivative weight loss curve can be used to determine at what temperature weight loss is most apparent. A 2 mg sample was placed into a sample boat on a microgram balance (accurate to +/−1 μg) and heated while monitoring the mass. The temperature was increased at 10° C./min while continuing to monitor the mass and graphing the result as a percentage of the original mass. The results from this analysis are shown in FIG. 2 and indicate mass loss beginning at about 50° C. and continuing to about 104° C. and then remaining stable until reaching approximately 260° C., whereupon a large loss of mass was recorded, which corresponds to the decomposition temperature.
# [5] = Oven heating for two hours, mass loss and HPLC check for decomposition; format: physicochemical; conditions: for Net Loss (weight %) / Net Loss: oven, two hours; for Net Loss: 50 g sample
# Protocol: An experiment was performed on four samples (50 g each) of commercially available Reb D. The samples were each heated in an oven for two hours at one of four temperatures: 70°, 80°, 90° and 100° C. The samples were then immediately cooled and weighed to determine any loss in mass. Each sample, including the initial sample, was analyzed using gradient reversed-phase High Performance Liquid Chromatography (HPLC) with Evaporative Light Scattering Detection (ELSD) and Ultra-Violet (UV) detection methods to determine if any significant decomposition occurred.
# [6] = Water solubility experiment, anhydrous versus non-anhydrous form, solubility versus temperature; format: physicochemical; conditions: after cooling to room temperature and sitting on a bench-top overnight
# Protocol: Equal starting amounts of both substances were placed in equal volumes of water in side-by-side beakers equipped with overhead stirrers and hot plates. As the temperature of the water solution increased and the starting amounts were dissolved, incremental quantities of additional respective sweetener were added.
# [7] = HPLC (ELSD/UV) analysis after heating at 100° C. for 120 hours; format: physicochemical; conditions: after heating 120 hours at 100° C.
# Protocol: It was discovered that upon heating commercially available Reb D, believed to be a non-anhydrous form of Reb D (i.e., hydrate), compound in an oven to a temperature of 100° C. for 120 hours, a thermally stable anhydrous Reb D product was obtained. […] The top graph indicates ELSD detection, and the bottom graph indicates UV detection results taken at a wavelength of 210 nm.
# Additional HPLC chromatogram analysis was performed using both an anhydrous sample of Reb D (i.e., after the sample had undergone the process of heating for 120 hours at 100° C.) and a sample that had undergone heating for 24 hours. […] A decomposition peak estimated to be in the range of 2% of the total mass was found in the analysis results from the anhydrous Reb D sample, but its structure was not determined.
compound,measurement,setting,value
"C=C1C[C@@]23CC[C@H]4[C@@](C)(CCC[C@@]4(C)C(=O)O[C@@H]4O[C@H](CO)[C@@H](O)[C@H](O)[C@H]4O)[C@@H]2CC[C@]1(O[C@@H]1O[C@H](CO)[C@@H](O)[C@H](O[C@@H]2O[C@H](CO)[C@@H](O)[C@H](O)[C@H]2O)[C@H]1O[C@@H]1O[C@H](CO)[C@@H](O)[C@H](O)[C@H]1O)C3 [Reb A, Rebaudioside A]",solubility in aqueous solution,[1]; room temperature,at least 3000 ppm
"C=C1C[C@@]23CC[C@H]4[C@@](C)(CCC[C@@]4(C)C(=O)O[C@@H]4O[C@H](CO)[C@@H](O)[C@H](O)[C@H]4O[C@@H]4O[C@H](CO)[C@@H](O)[C@H](O)[C@H]4O)[C@@H]2CC[C@]1(O[C@@H]1O[C@H](CO)[C@@H](O)[C@H](O[C@@H]2O[C@H](CO)[C@@H](O)[C@H](O)[C@H]2O)[C@H]1O[C@@H]1O[C@H](CO)[C@@H](O)[C@H](O)[C@H]1O)C3 [Reb D, Rebaudioside D]",temperature of apparent decomposition (large endothermic event),[2],about 260 °C
same,precipitation after cooling,[3]; dissolved in water with heating and allowed to cool,precipitating out of solution within a number of hours
same,decomposition temperature (large loss of mass),[4],approximately 260 °C
same,decomposition by HPLC,"[5]; after two hours at 70°, 80°, 90° and 100° C.",little to no decomposition
same,Net Loss (weight %),[5]; 70° C.,0.38 weight %
same,Net Loss,[5]; 70° C.,0.19 g
same,Net Loss (weight %),[5]; 80° C.,0.48 weight %
same,Net Loss,[5]; 80° C.,0.24 g
same,Net Loss (weight %),[5]; 90° C.,0.76 weight %
same,Net Loss,[5]; 90° C.,0.38 g
same,Net Loss (weight %),[5]; 100° C.,1.36 weight %
same,Net Loss,[5]; 100° C.,0.68 g
same,behaviour of heated solution upon cooling,"cooled to room temperature (e.g., 25° C.)",precipitates back out of solution within a few hours
same,stable solubility in aqueous solution,room temperature,no more than 450 ppm
same,appearance of water solution,[6]; listed as Reb D hydrate,full of precipitate
C=C1C[C@@]23CC[C@H]4[C@@](C)(CCC[C@@]4(C)C(=O)O[C@@H]4O[C@H](CO)[C@@H](O)[C@H](O)[C@H]4O)[C@@H]2CC[C@]1(O[C@@H]1O[C@H](CO)[C@@H](O)[C@H](O)[C@H]1O[C@@H]1O[C@H](CO)[C@@H](O)[C@H](O)[C@H]1O)C3 [Stevioside],solubility in water,[1]; in words,only sparingly soluble in water
"C=C1C[C@@]23CC[C@H]4[C@@](C)(CCC[C@@]4(C)C(=O)O[C@@H]4O[C@H](CO)[C@@H](O)[C@H](O)[C@H]4O[C@@H]4O[C@H](CO)[C@@H](O)[C@H](O)[C@H]4O)[C@@H]2CC[C@]1(O[C@@H]1O[C@H](CO)[C@@H](O)[C@H](O[C@@H]2O[C@H](CO)[C@@H](O)[C@H](O)[C@H]2O)[C@H]1O[C@@H]1O[C@H](CO)[C@@H](O)[C@H](O)[C@H]1O)C3 [anhydrous Reb D, Rebaudioside D]",decomposition by HPLC retention values,[7],no significant level of decomposition
same,impurity at the 14.1 minute elution mark,[7]; FIG. 6,about 5 % of the total mass
same,decomposition peak,[7]; FIG. 7,~2 % of the total mass
same,time at room temperature with no precipitating out of solution,[3]; 3000 ppm solution after cooling,at least 24 hours
same,solution concentration,"[3]; dissolved in water with heating, cooled to room temperature",3000 ppm
same,appearance of water solution,[6],stayed as a clear solution
